According to ChEMBL document CHEMBL3507680, “University of Dundee, Gates Library screen for HepG2 cell viability”:

Experiment: Human HepG2 cell viability assay in 384 well format
Assay type: toxicity, cell-based
Parameters: dose 125 nL, time 70.5 hour; cytotoxicity at 70.5 h: concentration not given beside the values
Settings: HepG2 cells, read-out: Inhibition

In order of rising cytotoxicity at 70.5 h:
1. CN(c1ccc(C(N)=O)nn1)C1CCC1  -15.8%
2. COCCNC(=O)[C@@H]1CCO[C@@H]2CCN(c3ccc(C)nn3)C[C@@H]21  -15.8%
3. Cc1nc2ncnn2c(C)c1CCC(=O)Nc1cccn(C)c1=O  -15.3%
4. O=C(O)c1cc2c(nc1-c1ccoc1)CCN(Cc1ccco1)CC2  -14.2%
5. CCCS(=O)(=O)N1C[C@H]2C[C@H](C(=O)N(C)C)[C@@H](C1)O2  -13.7%
6. CC(=O)NCC(=O)N1Cc2nccn2CC(CN(C)C(C)C)C1 (configuration not stated)  -13.6%
7. c1ccc2[nH]c(C3CCN(Cc4nnc(C5CC5)o4)CC3)cc2c1  -12.6%
8. Cc1cc(C)n(CC2CCCN2C(=O)Cc2cn3ccsc3n2)n1 (configuration not stated)  -12.4%
9. COCCN1CCc2cc(C(=O)O)c(-c3ccoc3)nc2CC1  -12.3%
10. CNC(=O)C1CCCCN1C(=O)C1CCN(S(C)(=O)=O)CC1 (configuration not stated)  -11.7%
11. Cn1cnc2c1CCN(CCCOc1ccc(S(C)(=O)=O)cc1)C2  -11.2%
12. O=C(O)c1ccc(S(=O)(=O)Nc2ccccc2F)c(F)c1  -11%
13. COc1cc(CNC(C)Cn2ccnc2)cc2c1OCO2 (configuration not stated)  -10.9%
14. Cc1nc(CN2C[C@@H]3CN(C(=O)c4cnccn4)C[C@@H]3C2=O)cs1  -10.8%
15. CN(CC(=O)N1CCCC1)Cc1nc2c(cnn2C)c(=O)[nH]1  -10.6%
16. CCN(CC)C(=O)CN(C)Cc1nc2c(cnn2C)c(=O)[nH]1  -10.6%
17. CCN(C)c1ccc(CNS(=O)(=O)C2CCOCC2)cc1F  -10.6%
18. CCCN(C)c1ccc(C(=O)NCc2ccnc(C)n2)cc1  -10%
19. Cc1nc(CN2C[C@@H]3CN(C(=O)c4ccoc4C)C[C@@H]3C2=O)cs1  -10%
20. CCOc1ccc(C#N)cc1NC(=O)N1CCC(N2CCCC2)C1 (configuration not stated)  -9.59%
21. Cc1nc(CN2CCc3ncnc(-c4ccccc4)c3CC2)cs1  -9.56%
22. CCOCC1CN(C(=O)Cc2cccs2)Cc2ccnn2C1 (configuration not stated)  -9.44%
23. O=C(c1cnccn1)N1C[C@@H]2CCN(c3cccnc3)C[C@@H]2C1  -9.4%
24. CC(C)C(=O)Nc1ncn(Cc2cccc(Br)c2)n1  -9.36%
25. COCC(=O)N1CCC2(CCC2NC(=O)c2ccn(C)c2)CC1 (configuration not stated)  -9.35%
26. Cc1noc(C)c1CNS(=O)(=O)N(C)Cc1ccccc1Br  -9.08%
27. O=C(CC1CC1)NCc1cn2c(n1)CN(Cc1cccnc1)CC2  -8.95%
28. COCCNC(=O)C1CN(Cc2csc(C)n2)Cc2ccnn2C1 (configuration not stated)  -8.82%
29. Cc1nc(CN2C[C@@H]3CN(C(=O)[C@H]4CCCO4)C[C@@H]3C2=O)cs1  -8.74%
30. Cc1cc(C)c(S(=O)(=O)Nc2ccccc2CC(F)(F)F)cc1C(=O)O  -8.62%
31. CSCC(=O)Nc1ncn(Cc2cccc(Br)c2)n1  -8.51%
32. CCCn1nnnc1CN(c1ccc(N2CCOCC2)cc1)C(C)C  -8.46%
33. c1cnc(NCc2cncc3c2CCN(Cc2ccoc2)C3)nc1  -8.36%
34. CN(Cc1ccccn1)C(=O)CC1CCOc2ccccc21 (configuration not stated)  -8.29%
35. Cn1cnc2c1CCN(CC(O)c1ccc(S(C)(=O)=O)cc1)C2 (configuration not stated)  -8.26%
36. Cc1noc([C@H]2C[C@H]3OCC[C@H]3N(Cc3ccc(F)cc3)C2)n1  -8.23%
37. Cc1ncnc2c1CCN(C(=O)c1ccncc1F)CC2  -8.13%
38. c1cnc(NCc2cncc3c2CCN(Cc2ccsc2)C3)nc1  -7.81%
39. NC(=O)C1(CNC(=O)CCc2ccc(Cl)s2)CCOCC1  -7.77%
40. Cn1cccc1C(=O)N1C[C@@H]2CCN(c3cccnc3)C[C@@H]2C1  -7.6%
41. Cc1ccc(NC(=O)CN2CCCNC2=O)c(SC(F)(F)F)c1  -7.48%
42. c1ccc(CN2CCc3ncnc(-c4cccnc4)c3CC2)nc1  -7.48%
43. CN(C)C(=O)COC1COC2(CCN(c3ncccn3)CC2)C1 (configuration not stated)  -7.32%
44. Cc1nc(CN2C(=O)CC[C@@H]3[C@H]2CCN3C(=O)c2ccc[nH]2)cs1  -7.13%
45. COCC(=O)N1Cc2nccn2CC(CN(C)Cc2cccnc2)C1 (configuration not stated)  -7.06%
46. CS(=O)(=O)Cc1nc(CN2CCOc3ccccc3C2)cs1  -6.97%
47. CN(Cc1ccc(Cl)c(F)c1)C(=O)c1ccncc1F  -6.79%
48. CC(C)NC(=O)N1Cc2nccn2CC(CN2CCCC2)C1 (configuration not stated)  -6.64%
49. O=C(COCc1ccccc1Cl)N1CCN(c2cnccn2)CC1  -6.52%
50. Cc1noc(C)c1CN1Cc2ccnn2CC(C(=O)NCC2CC2)C1 (configuration not stated)  -6.51%
51. c1cnn(Cc2cnc3n2CCN(CC2CCCCC2)C3)c1  -6.48%
52. CN(Cc1ccc(Cl)c(F)c1)C(=O)CCc1ccncc1  -6.42%
53. O=C(CC1CC1)NCc1cn2c(n1)CN(Cc1nccs1)CC2  -6.29%
54. CCCC1CCCN(C(=O)Nc2ccnc(C(=O)N(C)C)c2)CC1 (configuration not stated)  -6.22%
55. Cc1noc([C@@H]2C[C@H]3OCC[C@H]3N(Cc3ccoc3)C2)n1  -6.19%
56. c1cnc(N2CCCC3(CCN(CC4CC4)C3)C2)nc1 (configuration not stated)  -6.19%
57. O=C1CO[C@@H]2CN(CC3CCOC3)C[C@H]2N1Cc1cccc(F)c1 (some centres not stated)  -6.08%
58. CC(C)OCc1ncn2c1CN(Cc1nccs1)CCC2  -6.03%
59. CNC(=O)COC1COC2(CCN(c3ccc(C#N)cc3)CC2)C1 (configuration not stated)  -5.98%
60. Cc1noc(C)c1CNS(=O)(=O)N(C)Cc1ccc(Cl)cc1  -5.95%
61. CS(=O)(=O)Cc1nc(CN2CCCc3sccc3C2)cs1  -5.84%
62. Cc1ccc(C2CSCCN2CC(=O)N2CCOCC2)cc1 (configuration not stated)  -5.8%
63. Cc1ccc(Cl)c2c1C1(NC(=O)c3cccnc3N1)C(=O)N2 (configuration not stated)  -5.73%
64. O=C(CN1CCN(C(=O)c2cccc(-c3ccoc3)c2)CC1)C1CC1  -5.66%
65. CCCn1nnnc1CN(C)C(C)c1ccc(C)cc1 (configuration not stated)  -5.6%
66. O=C1CC(c2ccccc2)C2(CCN(C(=O)c3ccncc3F)CC2)N1 (configuration not stated)  -5.44%
67. COC(=O)c1ccc(N(C)C2CCC2)nn1  -5.28%
68. O=C(NCCc1nnc2n1CCCCC2)N1CCC2(CCOC2)C1 (configuration not stated)  -5.08%
69. Cc1cccc(CN2C(=O)CC[C@@H]3[C@H]2CCN3Cc2ccc(F)cc2)n1  -4.94%
70. O=C(CC1CC1)NCc1cn2c(n1)CN(C(=O)C1CCOCC1)CC2  -4.63%
71. Cc1nc(CN2C(=O)CC[C@@H]3[C@H]2CCN3C(=O)c2ccccn2)cs1  -4.48%
72. CCc1ccc(CN2C[C@@H](c3nc(C)no3)C[C@H]3OCC[C@H]32)o1  -3.87%
73. CCS(=O)(=O)NC[C@]12COC[C@H]1CN(Cc1ccccn1)C2  -3.72%
74. Cn1cc(C2CC(=O)NC23CCN(C(=O)c2cccnc2)CC3)cn1 (configuration not stated)  -3.63%
75. O=C(CC1CC1)NCc1cn2c(n1)CN(Cc1cccc(F)c1)CC2  -3.4%
76. CC(NCc1cccc(S(=O)(=O)N(C)C)c1)c1cccnc1 (configuration not stated)  -3.39%
77. Cc1nn(C)c(C)c1CCC(=O)Nc1cccn(C)c1=O  -3.26%
78. CNC(=O)C(C)CN(C)C(=O)Nc1cc(-n2cccc2)ccc1F (configuration not stated)  -3.24%
79. CCOc1ncnc2c1CCN(C(=O)c1ccncc1F)CC2  -3.16%
80. c1coc(COCc2ncn3c2CN(Cc2cccs2)CCC3)c1  -2.67%
81. CN(CC(O)C1CC1)C(=O)Nc1ccc(F)c(-n2cccc2)c1 (configuration not stated)  -2.43%
82. CN(Cc1cccnc1)CC1CN(C(N)=O)Cc2nccn2C1 (configuration not stated)  -2.38%
83. COCc1cncc2c1CCN(C(=O)c1ccoc1C)C2  -2.3%
84. CCn1cc2c(n1)CN(Cc1ccc(F)cc1)CC2COCC1CC1 (configuration not stated)  -1.9%
85. CCc1nnc2n1CCN(C(=O)c1ccc3c(c1)NC(=O)CO3)C2  -1.73%
86. CC(C#N)CN(C)C(=O)c1cn(-c2ccc(Br)cc2)cn1 (configuration not stated)  -1.57%
87. CC(=O)NCC(=O)N1CCC2(CC1)NC(=O)CC2c1cccnc1 (configuration not stated)  -1.28%
88. Cc1cc(C)n(CC2CCCN2C(=O)Cc2csc(C)n2)n1 (configuration not stated)  -1.11%
89. CC(C)c1nnc2n1CCN(C(=O)c1ccc3c(c1)COC3)C2  -0.783%
90. Cc1cc(CN2C[C@@H]3COC[C@]3(CNC(=O)N3CCCC3)C2)no1  0.0997%
91. CNC(=O)C(C)CN(C)C(=O)Nc1ccc(F)c(-n2cccc2)c1 (configuration not stated)  0.178%
92. c1csc(CN2CCCn3cnc(COCC4CC4)c3C2)c1  0.853%
93. Cc1cc(CCC(=O)N2CC[C@H](O)C2)ccc1Br  1.1%
94. COc1cc(CNCCn2ccnc2)cc2c1OCO2  1.27%
95. Cc1ccc(CN2Cc3cnn(C)c3C(COCC3CC3)C2)o1 (configuration not stated)  2.56%
96. CC(C)N(CC(N)=O)CC(=O)N(C1=CCCCC1)C1CC1  3.33%
97. Cc1noc([C@@H]2C[C@H]3OCC[C@H]3N(Cc3sccc3C)C2)n1  4.03%
98. CC1CCCN1C1CCN(C(=O)c2cccc(F)c2)CC1 (configuration not stated)  6.94%
99. COc1ccc(Cc2nnc3n2N=C(C(C)(C)C)CS3)cc1  8.14%
100. CCOCCN1Cc2cnn(C)c2C(COCC)C1 (configuration not stated)  8.6%
101. Cn1cnc2c1CCN(CC(O)c1ccc3c(c1)OCCO3)C2 (configuration not stated)  9.43%
102. Cn1cc(NC(=O)Nc2ccccn2)cc(Cl)c1=O  9.47%
103. CNC(=O)c1ccc(N(C)C2CCC2)nn1  9.71%
104. CCn1nc(C)c(S(=O)(=O)N(C)c2ccc(Cl)cn2)c1C  12%
105. COC(=O)c1cccc(NCC(=O)NC(N)=O)c1  12.1%
106. CNC(=O)Cc1noc(Cc2ccc3c(c2)CCCC3)n1  12.5%
107. CC(Cn1ccnc1)NCc1cc(Br)c2c(c1)OCO2 (configuration not stated)  12.5%
108. Cc1ccc2c(c1)C1(CCNCC1)CN2C(=O)C(C)C  18.3%
109. CC(CS(C)(=O)=O)NCc1cc(Cl)ccc1F (configuration not stated)  19.9%
110. CC(=O)N1CC2(CCNCC2)c2cc(C)ccc21  20.4%
111. COc1cc(CNC(C)Cn2ccnc2)cc2c1OCCO2 (configuration not stated)  21.5%
112. Cc1ncsc1CN(C)C(=O)CC1CCOc2ccccc21 (configuration not stated)  22.4%
